Marks after values point to notes of the source that are not given here.
How the values were obtained:
db/db mice [1] = experiment: Inhibitory effect of BG128 on hyperglycemia in db/db mice (Experimental Example 3); assay type: in vivo; conditions: for Insulin in serum: 3 days after the last administration; for Insulin in serum / Fasting blood glucose: n = 11; for non-fasting blood glucose after the first administration: FIG. 11
db/db mice [2] = experiment: as above; assay type: in vivo
Method: 55 6-8 week-old SPF-grade male db/db mice were purchased from Zhejiang Vital River Experimental Animal Technology Co., Ltd.
According to the dosage regimen in Table 7, a certain amount of Tirzepatide and BG128 were weighed and the vehicle (pH=7.0, 20 mM sodium citrate buffer) was added to formulated to the corresponding concentration. The formulation was performed once every 7 days, and the formulated mixture was sub-packaged and stored at 2° C.-8° C. in the dark.
Before the administration, according to the body weight and fasting blood glucose, the animals were grouped into: db/db-ND group, Tirzepatide—0.15 mg/kg group, BG128—0.05 mg/kg group, BG128—0.15 mg/kg group and BG128—0.5 mg/kg group, and each group have 11 animals; and see Table 7 for details.
The day of the first administration was recorded as d1, and the time was recorded by analogy; Tirzepatide and BG128 were administered once every three days, and the time points were d1, d4, d7, d10, d13, d16, d19, d22, d25 and d28, a total of 10 administrations; and see Table 7 for details.
Weighing: animals were weighed before administration once every three days until the end of the experiment.
The food intake of the animals was recorded starting at three days before the grouping for administration until the end of the experiment. The remaining amount was weighed before administration each time.
1) Non-fasting blood glucose determination: first administration 0 h (pre), 1 h, 2 h, 3 h, 6 h, 24 h, 48 h, 72 h;
2) Fasting blood glucose: the determination dates were respectively d-1 (before grouping), d7, d13, d19, d25 and d31. The animals were fasted for 6 hours, and the fasting blood glucose was determined before administration.
3 days after the last administration, the animals were weighed and fasted for 6 hours, and the fasting blood glucose of the animals was determined; after anesthesia, a portion of non-anticoagulated whole blood was collected through the orbital venous plexus, stood at room temperature for 30 minutes, and centrifuged at 5000 rpm for 5 minutes, the serum was separated and frozen at −80° C. for the determination of serum insulin content; a portion of anticoagulated whole blood was collected for the determination of HbA1c content. The serum insulin was determined by Elisa method.
The data was organized in Excel 2017 and Prism6.0, and the data was expressed as Mean±SEM (standard error). One-way ANOVA was used for analysis, and Tukey was selected as the analysis method for comparing significance of difference between groups; when the two groups were compared, T-test was used for two-tailed test between the two groups. […]

GIP receptor = biological target: T1, GIP receptor (Homo sapiens, UniProt P48546); experiment: cAMP experiment, GIP receptor (CHO host cell line); assay type: cell-based; conditions: CHO host cells
T1 construct: expressed in transfected cells; host or cells: CHO cell line
T1 sequence (P48546 22-466): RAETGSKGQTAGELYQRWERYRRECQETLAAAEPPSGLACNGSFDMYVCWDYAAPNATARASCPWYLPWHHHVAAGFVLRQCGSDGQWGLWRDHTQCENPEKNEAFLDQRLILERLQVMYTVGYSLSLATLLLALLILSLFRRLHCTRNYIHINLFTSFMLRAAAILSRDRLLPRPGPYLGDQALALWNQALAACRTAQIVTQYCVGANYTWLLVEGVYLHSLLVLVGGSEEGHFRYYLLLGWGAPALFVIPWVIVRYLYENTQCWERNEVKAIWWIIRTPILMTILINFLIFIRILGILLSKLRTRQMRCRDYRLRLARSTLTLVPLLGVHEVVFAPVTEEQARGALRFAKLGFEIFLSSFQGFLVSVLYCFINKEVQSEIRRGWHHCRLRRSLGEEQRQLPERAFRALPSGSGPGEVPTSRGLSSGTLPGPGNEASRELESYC

GLP-1 receptor = biological target: T2, GLP-1 receptor (Homo sapiens, UniProt P43220); experiment: cAMP experiment, GLP-1 receptor (HEK293 host cell line); assay type: cell-based; conditions: HEK293 host cells
T2 construct: expressed in transfected cells; host or cells: HEK293 cell line
T2 sequence (P43220 24-463, species assumed): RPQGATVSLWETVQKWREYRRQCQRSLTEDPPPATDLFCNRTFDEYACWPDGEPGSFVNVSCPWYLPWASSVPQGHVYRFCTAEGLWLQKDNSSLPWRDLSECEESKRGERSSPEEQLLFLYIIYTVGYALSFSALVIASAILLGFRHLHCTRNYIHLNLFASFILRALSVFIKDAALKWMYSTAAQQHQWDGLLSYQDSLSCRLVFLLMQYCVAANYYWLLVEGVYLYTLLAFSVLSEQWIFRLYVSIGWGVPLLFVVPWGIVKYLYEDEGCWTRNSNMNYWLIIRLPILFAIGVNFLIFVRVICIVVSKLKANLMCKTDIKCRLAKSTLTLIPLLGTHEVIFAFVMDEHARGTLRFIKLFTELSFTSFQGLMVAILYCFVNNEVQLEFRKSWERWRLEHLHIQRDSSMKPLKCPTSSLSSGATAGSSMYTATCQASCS

[3] = 0.05 mg/kg s.c. once every three days, anticoagulated whole blood, end of experiment, Mean ± SEM
[4] = 0.15 mg/kg s.c. once every three days, anticoagulated whole blood, end of experiment, Mean ± SEM
[5] = 0.5 mg/kg s.c. once every three days, anticoagulated whole blood, end of experiment, Mean ± SEM

Structure (SMILES): CNC(CCCCNC(=O)COCCOCCOCCNC(=O)COCCOCCOCCNC(=O)CCC(NC(=O)CC(=O)O)C(=O)O)C(N)=O (stereo not drawn) [BG128]
- Insulin in serum (db/db mice [1]; 0.05 mg/kg s.c. once every three days, Mean ± SD): 37649.0 ± 3597.0ª nIU/mL
- Fasting blood glucose (db/db mice [1]; 0.05 mg/kg s.c. once every three days, Day 0 (before administration, baseline), Mean ± SD): 23.18 ± 1.15 mmol/L
- Fasting blood glucose (db/db mice [1]; 0.05 mg/kg s.c. once every three days, Day 7, Mean ± SD): 21.68 ± 1.77^b mmol/L
- Fasting blood glucose (db/db mice [1]; 0.05 mg/kg s.c. once every three days, Day 13, Mean ± SD): 21.68 ± 1.11 mmol/L
- Fasting blood glucose (db/db mice [1]; 0.05 mg/kg s.c. once every three days, Day 19, Mean ± SD): 24.30 ± 1.41^c mmol/L
- Fasting blood glucose (db/db mice [1]; 0.05 mg/kg s.c. once every three days, Day 25, Mean ± SD): 18.32 ± 1.37^c mmol/L
- Fasting blood glucose (db/db mice [1]; 0.05 mg/kg s.c. once every three days, Day 31, Mean ± SD): 20.15 ± 1.91^c mmol/L
- HbA1C (db/db mice [1]; [3]): 5.18 ± 0.23
- HbA1C% (db/db mice [1]; [3]): 4.07 ± 0.13ª %
- Insulin in serum (db/db mice [1]; 0.15 mg/kg s.c. once every three days, Mean ± SD): 30897.0 ± 5634.0^a nIU/mL
- Fasting blood glucose (db/db mice [1]; 0.15 mg/kg s.c. once every three days, Day 0 (before administration, baseline), Mean ± SD): 23.17 ± 1.19 mmol/L
- Fasting blood glucose (db/db mice [1]; 0.15 mg/kg s.c. once every three days, Day 7, Mean ± SD): 22.78 ± 1.11^a mmol/L
- Fasting blood glucose (db/db mice [1]; 0.15 mg/kg s.c. once every three days, Day 13, Mean ± SD): 21.58 ± 1.13 mmol/L
- Fasting blood glucose (db/db mice [1]; 0.15 mg/kg s.c. once every three days, Day 19, Mean ± SD): 26.14 ± 1.05^b mmol/L
- Fasting blood glucose (db/db mice [1]; 0.15 mg/kg s.c. once every three days, Day 25, Mean ± SD): 15.70 ± 1.50^c mmol/L
- Fasting blood glucose (db/db mice [1]; 0.15 mg/kg s.c. once every three days, Day 31, Mean ± SD): 20.38 ± 1.87^c mmol/L
- HbA1C% (db/db mice [1]; [4]): 4.04 ± 0.14ª %
- Insulin in serum (db/db mice [1]; 0.5 mg/kg s.c. once every three days, Mean ± SD): 32774.0 ± 6290.0^a nIU/mL
- Fasting blood glucose (db/db mice [1]; 0.5 mg/kg s.c. once every three days, Day 0 (before administration, baseline), Mean ± SD): 22.99 ± 1.35 mmol/L
- Fasting blood glucose (db/db mice [1]; 0.5 mg/kg s.c. once every three days, Day 7, Mean ± SD): 15.54 ± 1.49^c mmol/L
- Fasting blood glucose (db/db mice [1]; 0.5 mg/kg s.c. once every three days, Day 13, Mean ± SD): 16.79 ± 1.20^c mmol/L
- Fasting blood glucose (db/db mice [1]; 0.5 mg/kg s.c. once every three days, Day 19, Mean ± SD): 13.26 ± 1.91^c mmol/L
- Fasting blood glucose (db/db mice [1]; 0.5 mg/kg s.c. once every three days, Day 25, Mean ± SD): 11.85 ± 1.74^c mmol/L
- Fasting blood glucose (db/db mice [1]; 0.5 mg/kg s.c. once every three days, Day 31, Mean ± SD): 16.41 ± 1.68^c mmol/L
- non-fasting blood glucose after the first administration (db/db mice [1]; BG128 dose groups 0.05, 0.15, 0.5 mg/kg s.c., 0-72 h): decreased rapidly within 24 h after the first administration
- body weight during the first administration (db/db mice [1]; Tirzepatide 0.15 mg/kg, BG128 0.05, 0.15, 0.5 mg/kg s.c., FIG. 8 and 9): positively correlated with the administration dose
- food intake after the first administration vs db/db-ND group (db/db mice [1]; Tirzepatide 0.15 mg/kg, BG128 0.05, 0.15, 0.5 mg/kg s.c., FIG. 10): positively correlated with the administration dose
- animal body weight loss rate compared with Tirzepatide (db/db mice [1]; equal dose (0.15 mg/kg s.c.), FIG. 8 and 9): better than that of Tirzepatide administration group
- decrease in food intake compared with Tirzepatide (db/db mice [1]; equal dose (0.15 mg/kg s.c.), FIG. 10): significantly greater than that of the positive control group Tirzepatide
- non-fasting blood glucose after the first administration (db/db mice [1]; high-dose group 0.5 mg/kg s.c., 24 h-72 h after administration): maintained in a relatively low range
- HbA1C (db/db mice [2]; [4]): 5.31 ± 0.19
- HbA1C (db/db mice [2]; [5]): 4.68 ± 0.20
- HbA1C% (db/db mice [2]; [5]): 3.33 ± 0.16^abde %
- blood sugar suppression effect (non-fasting) compared with Tirzepatide (db/db mice [2]; within 72 h of the first administration, equal dose 0.15 mg/kg, FIG. 11): dose-dependent and better than that of positive drug Tirzepatide
- EC50 (GIP receptor): 0.279 nM
- EC50 (GLP-1 receptor): 0.11 nM
